# Results reported in PMC7251018, “Structures of a P4-ATPase lipid flippase in lipid bilayers” (Protein & Cell, 2020).
# Assays:
# ctDnf1p-Cdc50p [1] = target: T1, ctDnf1p-Cdc50p (Thermochaetoides thermophila, UniProt G0S196); parameters: gene DNF1; conditions: E2P state; phosphorylation site D606; phosphate analogue
# ctDnf1p-Cdc50p [2] = target: T1, ctDnf1p-Cdc50p; test: ATPase activity; format: biochemical; parameters: gene DNF1; purified heterodimer; reconstituted into lipid nanodiscs (MSP) for cryo-EM; printed residues D606 (phosphorylation site), Q549, N550, S555, S559, E561, N1153, S1158; with Cell division control protein 50 (CDC50 family beta-subunit); conditions: phospholipid-dependent
# ctDnf1p-Cdc50p [3] = target: T1, ctDnf1p-Cdc50p; test: cryo-EM structure in lipid nanodiscs, […] Å; parameters: gene DNF1; purified heterodimer; reconstituted into lipid nanodiscs (MSP) for cryo-EM; printed residues D606 (phosphorylation site), Q549, N550, S555, S559, E561, N1153, S1158; with Cell division control protein 50 (CDC50 family beta-subunit); conditions: E1-ATP state; nucleotide-binding site, extended conformation
# T1 sequence (G0S196 whole entry): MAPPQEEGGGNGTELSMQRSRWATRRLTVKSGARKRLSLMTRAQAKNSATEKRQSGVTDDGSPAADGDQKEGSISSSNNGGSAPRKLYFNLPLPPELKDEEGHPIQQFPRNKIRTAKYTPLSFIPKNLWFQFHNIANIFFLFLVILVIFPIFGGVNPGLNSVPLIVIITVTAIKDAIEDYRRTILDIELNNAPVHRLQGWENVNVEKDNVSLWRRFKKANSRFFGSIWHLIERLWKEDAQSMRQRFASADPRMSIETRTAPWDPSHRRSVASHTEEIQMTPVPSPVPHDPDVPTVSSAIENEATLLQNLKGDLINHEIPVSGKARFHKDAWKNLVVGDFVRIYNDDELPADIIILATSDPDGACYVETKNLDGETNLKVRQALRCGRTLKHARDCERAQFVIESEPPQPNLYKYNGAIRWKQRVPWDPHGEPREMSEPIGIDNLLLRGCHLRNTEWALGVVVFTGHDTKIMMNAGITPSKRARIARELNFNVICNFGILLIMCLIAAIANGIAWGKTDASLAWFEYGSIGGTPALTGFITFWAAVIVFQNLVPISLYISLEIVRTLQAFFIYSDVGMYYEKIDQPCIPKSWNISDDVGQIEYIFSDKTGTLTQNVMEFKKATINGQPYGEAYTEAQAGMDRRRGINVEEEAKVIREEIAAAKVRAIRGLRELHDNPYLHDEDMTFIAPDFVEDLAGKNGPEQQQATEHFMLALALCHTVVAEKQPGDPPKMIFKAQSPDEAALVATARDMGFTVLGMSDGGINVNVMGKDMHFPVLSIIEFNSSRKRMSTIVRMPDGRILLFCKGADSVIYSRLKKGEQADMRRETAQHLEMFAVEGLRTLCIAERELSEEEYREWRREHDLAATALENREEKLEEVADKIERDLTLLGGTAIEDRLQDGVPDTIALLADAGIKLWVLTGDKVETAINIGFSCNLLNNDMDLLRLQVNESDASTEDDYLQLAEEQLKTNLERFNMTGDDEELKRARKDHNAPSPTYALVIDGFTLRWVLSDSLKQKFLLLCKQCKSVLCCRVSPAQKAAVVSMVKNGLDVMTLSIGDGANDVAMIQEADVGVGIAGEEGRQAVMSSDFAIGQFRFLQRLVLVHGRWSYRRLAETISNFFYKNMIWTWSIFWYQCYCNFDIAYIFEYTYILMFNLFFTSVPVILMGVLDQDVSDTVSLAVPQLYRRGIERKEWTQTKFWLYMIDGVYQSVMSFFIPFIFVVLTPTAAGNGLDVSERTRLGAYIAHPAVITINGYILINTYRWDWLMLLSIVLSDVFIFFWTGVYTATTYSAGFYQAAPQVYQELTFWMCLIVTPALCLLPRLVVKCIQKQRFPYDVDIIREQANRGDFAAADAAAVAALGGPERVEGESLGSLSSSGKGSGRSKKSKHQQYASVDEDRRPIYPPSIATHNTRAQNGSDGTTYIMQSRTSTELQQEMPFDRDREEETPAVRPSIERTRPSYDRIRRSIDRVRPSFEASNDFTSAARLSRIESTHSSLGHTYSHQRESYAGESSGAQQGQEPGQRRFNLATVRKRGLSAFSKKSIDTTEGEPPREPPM
# T1 sequence (G0SDN0 whole entry partner): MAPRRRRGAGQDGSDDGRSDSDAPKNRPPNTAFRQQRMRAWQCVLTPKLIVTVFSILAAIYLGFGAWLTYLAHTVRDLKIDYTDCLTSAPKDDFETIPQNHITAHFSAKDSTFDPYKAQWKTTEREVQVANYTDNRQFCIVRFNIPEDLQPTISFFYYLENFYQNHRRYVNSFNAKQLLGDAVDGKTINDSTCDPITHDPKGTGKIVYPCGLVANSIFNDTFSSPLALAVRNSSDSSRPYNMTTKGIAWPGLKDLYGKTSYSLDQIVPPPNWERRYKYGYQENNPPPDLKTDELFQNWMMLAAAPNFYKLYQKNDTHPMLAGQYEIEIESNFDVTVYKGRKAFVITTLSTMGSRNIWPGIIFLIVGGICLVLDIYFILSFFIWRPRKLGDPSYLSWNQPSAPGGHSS
structure (smiles),measurement,setting,value
[F][Be-]([F])[F] [BeF3^−],"cryo-EM structure in lipid nanodiscs, 3.4 Å",ctDnf1p-Cdc50p [1],"In the E2P structure, BeF3^− is bound at the phosphorylation site D606"
Nc1ncnc2c1ncn2[C@@H]1O[C@H](COP(=O)(O)OP(=O)(O)OP(=O)(O)O)[C@@H](O)[C@H]1O [ATP],ATPase activity,ctDnf1p-Cdc50p [2],The purified ctDnf1p-Cdc50p heterodimer showed phospholipid-dependent ATPase activity
Nc1ncnc2c1ncn2[C@@H]1O[C@H](COP(=O)(O)OP(=O)(O)CP(=O)(O)O)[C@@H](O)[C@H]1O [AMPPCP],"cryo-EM structure in lipid nanodiscs, 3.5 Å",ctDnf1p-Cdc50p [3],"In the E1-ATP structure, AMPPCP adapts an extended conformation"
